Assay results published in US10344049B2, “Substituted steroids for the treatment of cancer” (AQUAVAN TECHNOLOGY CO., LTD., priority 2017, dated 2019).
Where two headings read alike, the source gives them in different places.

Columns and labels:
Type in all cases: cell-based
[1] = test system: African green monkey kidney cells Vero; assay: Cell viability test (Resazurin), Vero cells
Description: (§1) Cell viability was determined with Resazurin (at a final concentration of 25 μg/mL).

[2] = test system: human breast cancer cells MDA-MB-231; assay: Cell viability test (Resazurin), MDA-MB-231 cells; parameters: evaluation of ability to inhibit cell growth activity (IC50): scale not given here
Description: as §1

[3] = test system: human Glioblastoma cells U87-MG; assay: Cell viability test (Resazurin), U87-MG cells; parameters: evaluation of ability to inhibit cell growth activity (IC50): scale not given here
Description: as §1

[4] = test system: human breast cancer cells MDA-MB-468; assay: Cell viability test (Resazurin), MDA-MB-468 cells
Description: as §1

[5] = test system: human liver cancer cells Mahlavu; assay: Cell viability test (Resazurin), Mahlavu cells
Description: as §1

[6] = test system: human lung cancer cells A549; assay: Cell viability test (Resazurin), A549 cells
Description: as §1

[7] = test system: human colorectal cancer cells SW-480; assay: Cell viability test (Resazurin), SW480 cells; parameters: evaluation of ability to inhibit cell growth activity (IC50): scale not given here
Description: as §1

[8] = test system: human leukemia cells U937; assay: Cell viability test (Resazurin), U937 cells
Description: as §1

[9] = 48 hours, 0.1% FCS, Resazurin, read-out: inhibitory concentrations of cell growth activity IC50
[10] = Homo sapiens, MDA-MB-231, MDA-MB-231 cells, grade of the IC50 of Table 2, read-out: evaluation of ability to inhibit cell growth activity (IC50)
[11] = MDA-MB-231 cells, 48 hours, 0.1% FCS, Resazurin, read-out: inhibitory concentrations of cell growth activity IC50
[12] = Homo sapiens, U-87 MG, grade of the IC50 of Table 2, read-out: evaluation of ability to inhibit cell growth activity (IC50)
[13] = Homo sapiens, MDA-MB-468, MDA-MB-468 cells, grade of the IC50 of Table 2, read-out: evaluation of ability to inhibit cell growth activity (IC50)
[14] = MDA-MB-468 cells, 48 hours, 0.1% FCS, Resazurin, read-out: inhibitory concentrations of cell growth activity IC50
[15] = grade of the IC50 of Table 2, read-out: evaluation of ability to inhibit cell growth activity (IC50)
[16] = A549 cells, 48 hours, 0.1% FCS, Resazurin, read-out: inhibitory concentrations of cell growth activity IC50
[17] = A549 cells, grade of the IC50 of Table 2, read-out: evaluation of ability to inhibit cell growth activity (IC50)
[18] = Homo sapiens, SW480, SW480 cells, grade of the IC50 of Table 2, read-out: evaluation of ability to inhibit cell growth activity (IC50)
[19] = SW480 cells, 48 hours, 0.1% FCS, Resazurin, read-out: inhibitory concentrations of cell growth activity IC50
[20] = SW480 cells, grade of the IC50 of Table 2
[21] = U937 cells, 48 hours, 0.1% FCS, Resazurin, read-out: inhibitory concentrations of cell growth activity IC50
[22] = U937 cells, grade of the IC50 of Table 2, read-out: evaluation of ability to inhibit cell growth activity (IC50)
[23] = MDA-MB-231 cells, grade of the IC50 of Table 2, read-out: evaluation of ability to inhibit cell growth activity (IC50)
[24] = MDA-MB-468 cells, grade of the IC50 of Table 2, read-out: evaluation of ability to inhibit cell growth activity (IC50)
[25] = SW480 cells, grade of the IC50 of Table 2, read-out: evaluation of ability to inhibit cell growth activity (IC50)
[26] = Chlorocebus sabaeus, Vero, 48 h, 0.1% FCS, Resazurin, read-out: inhibitory concentrations of cell growth activity IC50
[27] = Chlorocebus sabaeus, Vero, grade of the IC50 of Table 2, read-out: evaluation of ability to inhibit cell growth activity (IC50)
[28] = Homo sapiens, MDA-MB-231, 48 h, MDA-MB-231 cells, 48 hours, 0.1% FCS, Resazurin, read-out: inhibitory concentrations of cell growth activity IC50
[29] = Homo sapiens, Mahlavu, 48 h, 0.1% FCS, Resazurin, read-out: inhibitory concentrations of cell growth activity IC50
[30] = Homo sapiens, Mahlavu, grade of the IC50 of Table 2, read-out: evaluation of ability to inhibit cell growth activity (IC50)
[31] = Homo sapiens, A549, 48 h, A549 cells, 48 hours, 0.1% FCS, Resazurin, read-out: inhibitory concentrations of cell growth activity IC50
[32] = Homo sapiens, A549, A549 cells, grade of the IC50 of Table 2, read-out: evaluation of ability to inhibit cell growth activity (IC50)
[33] = Homo sapiens, U-937, 48 h, U937 cells, 48 hours, 0.1% FCS, Resazurin, read-out: inhibitory concentrations of cell growth activity IC50
[34] = Homo sapiens, U-937, U937 cells, grade of the IC50 of Table 2, read-out: evaluation of ability to inhibit cell growth activity (IC50)

| Structure (SMILES) | IC50 [1, 9] [µM] | IC50 [2, 10] [µM] | IC50 [2, 11] [µM] | IC50 [3, 9] [µM] | IC50 [3, 12] [µM] | IC50 [4, 13] [µM] | IC50 [4, 14] [µM] | IC50 [5, 9] [µM] | IC50 [5, 15] [µM] | IC50 [6, 16] [µM] | IC50 [6, 17] [µM] | IC50 [7, 18] [µM] | IC50 [7, 19] [µM] | evaluation of ability to inhibit cell growth activity (IC50) [7, 20] | IC50 [8, 21] [µM] | IC50 [8, 22] [µM] | IC50 [2, 23] [µM] | IC50 [3, 15] [µM] | IC50 [4, 24] [µM] | IC50 [7, 25] [µM] | also measured |
| --- | --- | --- | --- | --- | --- | --- | --- | --- | --- | --- | --- | --- | --- | --- | --- | --- | --- | --- | --- | --- | --- |
| CO[C@H]1O[C@]23C=C[C@@H]4[C@@]1(CC[C@]1(C)[C@@H]([C@H](C)C/C=C/C(C)(C)O)CC[C@@]41C)[C@@H]2CC[C@H](O)C3(C)C [Compound 20] | 12.5 | 8 to 16 | 10.4 | 12.2 | 8 to 16 | < 8 | 6.9 | 19.7 | 16 to 64 | 20.1 | 16 to 64 | 8 to 16 | 12.6 | ◯ | 4.33 | < 8 | – | – | – | – | evaluation of ability to inhibit cell growth activity (IC50) ([1]; grade of the IC50 of Table 2): ◯; evaluation of ability to inhibit cell growth activity (IC50) ([2]; MDA-MB-231 cells, grade of the IC50 of Table 2): ◯; evaluation of ability to inhibit cell growth activity (IC50) ([3]; grade of the IC50 of Table 2): ◯ |
| CC(C)=C[C@H](O)C[C@@H](C)[C@H]1CC[C@@]2(C)[C@@H]3[C@@H](O[C@@H]4O[C@H](CO)[C@@H](O)[C@H](O)[C@H]4O)C=C4[C@@H](CC[C@H](O)C4(C)C)[C@]3(C=O)CC[C@]12C [Compound 13] | > 256 | – | 59.4 | 103 | – | – | 58.3 | > 256 | > 256 | 198 | 64 to 256 | – | 67.2 | – | 32.5 | 16 to 64 | 16 to 64 | 64 to 256 | 16 to 64 | 64 to 256 | IC50 [1, 15]: > 256 µM |
| C[C@H](C/C=C/C(C)(C)O)[C@H]1CC[C@@]2(C)[C@@H]3[C@@H](O[C@@H]4O[C@H](CO)[C@@H](O)[C@H](O)[C@H]4O)C=C4[C@@H](CC[C@H](O)C4(C)C)[C@]3(C=O)CC[C@]12C [Compound 14] | > 256 | – | 32.8 | 58.5 | – | – | 39.3 | > 256 | > 256 | 171 | 64 to 256 | – | 64.2 | – | 19.8 | 16 to 64 | 16 to 64 | 16 to 64 | 16 to 64 | 64 to 256 | IC50 [1, 15]: > 256 µM |
| CC(=O)O[C@H]1CC[C@@H]2C(=C[C@H](O)[C@@H]3[C@@]2(C=O)CC[C@]2(C)[C@@H]([C@H](C)C[C@H](C=C(C)C)OC(C)=O)CC[C@@]32C)C1(C)C [Compound 6] | – | 16 to 64 | – | – | 16 to 64 | 8 to 16 | – | – | – | – | – | 8 to 16 | – | ◯ | – | – | – | – | – | – | IC50 [1, 26]: 23.1 µM; IC50 [1, 27]: 16 to 64 µM; IC50 [2, 28]: 23.5 µM; IC50 ([3]; Homo sapiens, U-87 MG, 48 h, 0.1% FCS, Resazurin, read-out: inhibitory concentrations of cell growth activity IC50): 23.4 µM; IC50 ([4]; Homo sapiens, MDA-MB-468, 48 h, MDA-MB-468 cells, 48 hours, 0.1% FCS, Resazurin, read-out: inhibitory concentrations of cell growth activity IC50): 14 µM; evaluation of ability to inhibit cell growth activity (IC50) ([4]; MDA-MB-468 cells, grade of the IC50 of Table 2): ◯; IC50 [5, 29]: 16.2 µM; IC50 [5, 30]: 16 to 64 µM; IC50 [6, 31]: 5.43 µM; IC50 [6, 32]: < 8 µM; IC50 ([7]; Homo sapiens, SW480, 48 h, SW480 cells, 48 hours, 0.1% FCS, Resazurin, read-out: inhibitory concentrations of cell growth activity IC50): 14.9 µM; IC50 [8, 33]: 1.57 µM; IC50 [8, 34]: < 8 µM |
| COC1O[C@]23C=C[C@@H]4[C@@]1(CC[C@]1(C)[C@@H]([C@H](C)C[C@@H](O)C=C(C)C)CC[C@@]41C)[C@@H]2CC[C@H](O)C3(C)C (stereo partly shown) [Compound 21] | – | – | – | 83.5 | – | – | 35.4 | – | – | – | – | – | 118 | – | – | – | 64 to 256 | 64 to 256 | 16 to 64 | 64 to 256 | IC50 [1, 26]: > 256 µM; IC50 [1, 27]: > 256 µM; IC50 [2, 28]: 130 µM; IC50 [5, 29]: > 256 µM; IC50 [5, 30]: > 256 µM; IC50 [6, 31]: > 256 µM; IC50 [6, 32]: > 256 µM; IC50 [8, 33]: 6.19 µM; IC50 [8, 34]: < 8 µM |
